Measurements reported in US20260242418A1, “CYCLIC PEPTIDES WITH ANTIBACTERIAL ACTIVITY AGAINST MULTIDRUG RESISTANT (MDR) PATHOGENS” (priority 2022, published 2026).
Converted amounts (≈) assume the structure as drawn.

Experiments:
Type in all cases: cell-based
Enterococcus faecalis = details: 15 strains
Text: (§1) The Minimum Inhibitory Concentration (MIC) of PLP-3 peptide (SEQ D NO: 4) against a collection of clinically relevant Gram-positive bacterial strains was obtained via broth microdilution. The tested species Staphylococcus aureus, Enterococcus faecium and Enterococcus faecalis. The followed protocol was based on the Clinical & Laboratory Standards Institute (CLSI) and EUCAST Guidelines.
(§2) In these tests, MIC is the value defined as the lowest concentration of an antimicrobial which inhibits the macroscopic growth of a bacterial strain after 16-20 hours of incubation at 37° C. The results of this assay were obtained by visual identification of bacterial growth at the bottom of each well plate. Since the wells contained decreasing concentrations of the peptide, the final result was indicated as a concentration, MIC, expressed in μg/mL of the PLP-3.
(§3) Bacterial strains were streaked in Columbia Agar plates (Columbia Agar with 5% Sheep Blood 90 mm Stacker plates, Becton Dickinson) and incubated overnight at 37° C. Polypropylene round bottomed 96-well plates were filled with 50 μL/well of Cation Adjusted Mueller-Hinton Broth (CAMHB, 90922, 500 g, Sigma-Aldrich) and 50 μL of PLP-3 (at 4 times higher the chosen initial concentration of the test) were added to the first well of each row of the plate followed by 1:2 serial dilutions up until the 10th column of the plate. The 11th and 12th columns were used for positive and negative growth controls.
(§4) Stain inoculums were standardized by preparing a 1:100 dilution of 0.5 McFarland solutions in CAMHB. Plates were inoculated with 50 μL of the diluted inoculums and covered with an adhesive film before 16-20 hours of incubation at 37° C.
(§5) Two biological and two technical replicates were performed per strain.
(§6) Broth microdilution testing from a panel of clinical strains of each specie provided MIC50 and […] values (Table 7). Strains were either from clinical origin, relevant to current clinical situation, or commercially available strains belonging to the American Type Culture Collection (ATCC), S. aureus 29213. Regarding clinical strains collection, 10 out of the 19 S. aureus strains were resistant to methicillin (MRSA), and 11 out of the 22 E. faecium strains were resistant to Vancomycin (VRE).
(§7) MIC50 value represents the antimicrobial concentration value that inhibits the growth of 50% of the bacterial strain panel. […] value represents the antimicrobial concentration value that inhibits the growth of 90% the bacterial strain collection.

Staphylococcus aureus = details: 19 strains (10/19 MRSA)
Text: as §1, §2, §3, §4, §5, §6, §7

Enterococcus faecium = details: 22 strains (11/22 VRE)
Text: as §1, §2, §3, §4, §5, §6, §7

Acinetobacter baumannii = system: Acinetobacter baumannii
Text: (§8) Minimum Inhibitory Concentration (MIC) of a peptide of SEQ D NO: 4 (abbreviated PLP-3) and colistin against a collection of clinically relevant and commercially available bacterial strains was obtained via broth microdilution. The protocol for antimicrobial activity determination, detailed below, consisted in a modification of Clinical & Laboratory Standards Institute (CLSI) Guidelines.
(§9) MIC is the value defined as the lowest concentration of an antimicrobial, in these tests either PLP-3 or colistin, which inhibits the macroscopic growth of a bacterial strain after 18-22 h incubation at 37° C. The results from these assays are obtained via visual identification of the bacterial bottom at the end of the wells of the testing plate. Since the wells contain decreasing concentrations of the compounds, the final result is indicated as a concentration, MIC, expressed in μg/mL of the agent (in this case PLP-3 or colistin).
(§10) Bacterial strains were streaked in Columbia Agar plates (Columbia Agar with 5% Sheep Blood 90 mm Stacker plates, BD) and incubated overnight at 37° C. Polypropylene round bottomed 96-well plates were filled with 50 μL/well of Mueller-Hinton Broth (MHB, CM0405, 500 g, ThermoFisher Scientific™ Oxoid™) and 50 μL of either colistin or PLP-3 (at 4× the chosen initial concentration of the test) were added to the first well of each row of the plate followed by serial dilutions up until the 10th column of the plate.
(§11) Finally, strain inoculums were prepared by diluting 1:100 0.5 McFarland solutions in MHB. Plates were then inoculated with 50 μL of the inoculums and covered with film before 18 to 22 h incubation at 37 C.
(§12) Three biological and three technical replicates were performed per strain.
(§13) Broth microdilution testing of 15 strains of each species provided MIC50 and […] values (Table 4). Strains were either from clinical origin, relevant to current clinical situation, or commercially available strains belonging to the American Type Culture Collection (ATCC), namely: A. baumannii 17978 and 19606, K. pneumoniae 13883 and P. aeruginosa 27853.
(§14) This panel represents an example of relevant MDR, colistin resistant and colistin susceptible strains from which to compare results. The minimum inhibitory concentration (MIC) is the lowest concentration of a chemical, usually a drug, which prevents visible growth of a bacterium or bacteria. MIC50 represents the antimicrobial concentration value that inhibits the growth of 50% of the bacterial strains and […] of each species from the tested panel of strains. Being colistin both a peptide and a last-resource antibiotic, it was included in these assays for comparison against a commercially available antibiotic.

Klebsiella pneumoniae = system: Klebsiella pneumoniae
Text: as §8, §9, §10, §11, §12, §13, §14

[1] = panel of 15 A. baumannii strains
[2] = panel of 15 K. pneumoniae strains

CC(C)C[C@@H]1NC(=O)[C@H](CCCNC(=N)N)NC(=O)[C@H](CCCNC(=N)N)NC(=O)[C@H](CCCNC(=N)N)NC(=O)[C@H]2CCCN2C(=O)[C@H](CCCNC(=N)N)NC(=O)[C@H](CCCNC(=N)N)NC(=O)[C@H](C(C)C)NC(=O)[C@@H]2CSSC[C@H](NC1=O)C(=O)N[C@@H](Cc1ccccc1)C(=O)N[C@@H](C(C)C)C(=O)N[C@@H](CCCNC(=N)N)C(=O)N1CCC[C@@H]1C(=O)N[C@@H](CCCCN)C(=O)N[C@@H](Cc1ccccc1)C(=O)N[C@@H](C(C)C)C(=O)N[C@@H](C(C)C)C(=O)N2 [PLP-3, cyclo[RRRLCFVRPKFVVCVRRP]]
MIC50 (Enterococcus faecalis): 4 µg/mL (≈ 1.76 µM) | MIC90 (Enterococcus faecalis): 4 µg/mL (≈ 1.76 µM) | MIC50 (Staphylococcus aureus): 4 µg/mL (≈ 1.76 µM) | MIC90 (Staphylococcus aureus): 8 µg/mL (≈ 3.53 µM) | MIC50 (Enterococcus faecium): 2 µg/mL (≈ 0.882 µM) | MIC90 (Enterococcus faecium): 2 µg/mL (≈ 0.882 µM) | Range of MICs (Acinetobacter baumannii): 1 to 2 µg/mL | MIC50 (Acinetobacter baumannii; [1]): 1 µg/mL (≈ 0.441 µM) | MIC90 (Acinetobacter baumannii; [1]): 2 µg/mL (≈ 0.882 µM) | MIC range (Klebsiella pneumoniae): 2 to 32 µg/mL | MIC50 (Klebsiella pneumoniae; [2]): 4 µg/mL (≈ 1.76 µM) | MIC90 (Klebsiella pneumoniae; [2]): 16 µg/mL (≈ 7.06 µM)
